The source of these data is publication PMC6982702, “Extensive Structure Modification on Luteolin-Cinnamic Acid Conjugates Leading to BACE1 Inhibitors with Optimal Pharmacological Properties” (Molecules, 2019).

Each structure is given as a SMILES string. Values joined by “and” are separate entries in the source; they are usually repeats but may differ in a detail not shown here. Identical values can stand only once. Like-named read-outs stand apart in the source and are kept apart here.

Data set [1] addresses T1, BACE1 (Homo sapiens, UniProt P56817).
T1 construct: purchased PanVera Co. (Invitrogen, USA)
Kind of data set: In vitro BACE1 FRET enzyme assay. To be noted: for inhibition at 10 µM: read-out: Inhibition Rate at 10 μM (%); for selectivity on BACE1 over BACE2 and renin: from IC50 values of Table 6. The class given is biochemical. The method, then:
The BACE1 FRET assay kit was purchased from the PanVera Co. (Invitrogen, USA). The assay was carried out according to the supplied manual with modifications. […] The fluorescence intensity was measured with a TECAN infinite 200 microplate reader for 60 min at 25 °C in the dark. […] The percent inhibition (%) was obtained by the following equation: Inhibition % = (1 −SS/SC) × 100%, where SC is the slope of fluorescence change of the control (enzyme, buffer, and substrate) during 60 min, and SS is the slope of fluorescence change of the tested samples (enzyme, sample solution, and substrate) during 60 min of measurement. IC50 values were calculated from the nonlinear curve fitting of percentage inhibition against inhibitor concentration using Prism 3.0 software (GraphPad Software, San Diego, CA, USA).

Data set [2] deals with Aβ-38, Aβ-40, Aβ-42 in HEK293 cells stably overexpressing human APP695. Kind of data set: Inhibition of Aβ production in APP overexpressed cells (V-Plex Aβ Peptide Panel immunoassay). The format is cell-based. To be noted: for Aβ levels: higher concentrations (10, 25, and 50 µM), 23 h; for Aβ levels / Aβ-42 levels: DMSO = 100%. The procedure:
To assess the cellular BACE1 inhibitory activity of the conjugates, 7a–d, 7i, and 7k were incubated in APP overexpressing HEK293 cells and their inhibition on the three main Aβ species Aβ-38, Aβ-40, and Aβ-42—the main amyloidogenic peptides produced by BACE1 cleavage of APP peptide—was measured by an ELISA-like immunoassay method. Aβ levels were normalized to the protein concentration in the lysate in order to rule out differences in total cell number per well of the culture plate. Additionally, the normalized Aβ level was set to 100% for the DMSO-treated control.
HEK293 cells stably overexpressing human APP695 were plated in a poly-D-lysine-coated 96-well plates and grown to a density of 80–90%. Compounds were dissolved in DMSO to make a 10 mM stock solution and diluted in DMEM complete medium to the final concentrations: 0.1, 1.0, 5.0, 10.0, 25.0, and 50.0 µM. DMSO was used at a 1:200 dilution as a negative control and a commercially available BACE1 inhibitor (C3, also known as BACE inhibitor IV) as a positive control. After 23 h of incubation, the cell supernatants were directly used for measurement in the V-Plex Aβ Peptide Panel 1 (6E10) Kit from Meso Scale Diagnostics (Rockville, MD, USA) for measuring Aβ38, −40, and −42 simultaneously. Cells were washed with PBS and lysed in Triton X100 lysis buffer for subsequent protein concentration (BCA) measurement.

Another data set is described as follows: MTT cytotoxicity assay. The class given is cell-based. To be noted: human, 24 h exposure. The procedure:
It is crucial for the BACE1 inhibitors to exert their activities at sub-toxic concentration, and thus their cytotoxicity was assessed in HEK293 cells by 3-[4,5-dimethylthiazol-2-yl]-2,5-diphenyl-tetrazolium bromide (MTT) assays (Table 5). […] Unfortunately, there was no obvious relationship between the structures and their cytotoxicity.
The cytotoxicity was examined by using 3-[4,5-dimethylthiazol-2-yl]-2,5-diphenyl-tetrazolium bromide (MTT) assay. HEK293T cells were seeded with complete DMEM into 96-well plates ([…], 100 µL/well), incubated at 37 °C in a humidified atmosphere with 5% CO2 for 24 h. All the compounds were diluted with the phenol red-free DMEM at a specific concentration. After 24 h of exposure to different concentrations of compound, the supernatant was removed and then 20% (v/v) MTT (5 mg/mL) diluted with fresh culture medium was added into each well and incubated for 4 h. Cells were lysed with 100 μL dimethyl sulfoxide (DMSO) and shaken for 10 min at room temperature. The absorbance in each well was detected at a wavelength of 490 nm using a Universal Microplate Reader (ELX 800 lv, BIO-TEK Instruments, Inc., Winooski, VT, USA).

In data set [3] the target is T1, BACE1. Further details: method as in PMID 31557620. The note with it: previous work ref 13; cited from earlier work.
In data set [4] the target is T1, BACE1. The data set can be described thus: Kinetic analysis of BACE1 inhibition (Dixon plot). The class given is biochemical. To be noted: for Ki: BACE1 substrate 250, 500, 750 nM. The method, then:
The Dixon plot was used to determine the kinetics of 4l, 7c, and 7k inhibiting BACE1.
The Dixon plot is a graphical method (plot of 1/enzyme velocity (1/V) against inhibitor concentration (I)) for determination of the type of enzyme inhibition, which was used to determine the dissociation or inhibition constant (Ki) for the enzyme inhibitor complex. The Dixon plots for BACE1 inhibition were obtained in the presence of various concentrations of BACE1 substrate (250, 500, 750 nM) and the concentrations of 4l, 7c, and 7k as follows: 0.1 µM, 0.5 µM, 1.0 µM. In this way, the inhibition constants (Ki) of 4e were determined by interpretation of Dixon plots, where the value of the x-axis represents −Ki when 1/V = 0. […]
The Dixon plot is a graphical method [plot of 1/enzyme velocity (1/V) against inhibitor
concentration (I)] for determination of the type of enzyme inhibition and was used to determine the
dissociation or inhibition constant (Ki) for the enzyme inhibitor complex (Cornish-Bowden, 1974).
The Dixon plots for BACE1 inhibition were obtained in the presence of various concentrations of […]
BACE1 substrate (250, 500, 750 nM) and the concentrations of 4l, 7c and 7k as follows: 0.1 µM, 0.5 µM,
1.0µM. In this way, the inhibition constants (Ki) of 4e were determined by in terpretation of Dixon
plots, w here t he value of the X -axis represents -Ki when 1/V=0.
Figure 3. Kinetic analysis of 4l.
Figure 4. Kinetic anal ysis of 7k. […]
The BACE1 FRET assay kit was purchased from the PanVera Co. (Invitroge, USA). The assay
was carried out according to the supplied manual with modifications. Briefly, assays were
performed in triplicate in 384-well black plates with a mixture of 5 μL of BACE1 (1.0 U/ml), 5 μL of
the substrate (750 nM, Rh-[…]- Quencherin 50 mM, ammonium bicarbonate), and 5 μL of
compound dissolved in 10% DMSO. The fluorescence intensity was measured with a TECAN
infinite 200 microplate reader for 60 min at 25 °C in the dark. The mixture was irradiated at 544 nm
and the emission intensity recorded at 590 nm. The percent inhibition (%) was obtained by the
following equation: Inhibition % = (1-SS/SC) × 100%, where SC is the slope of fluorescence change of
the control (enzyme, buffer, and substrate) during 60 min, and SS is the slope of fluorescence change
of the tested samples (enzyme, sample solution, and substrate) during 60 min of measurement. […]

The next data set concerns the target T2, Renin (Homo sapiens, UniProt P00797).
T2 sequence (P00797 67-406): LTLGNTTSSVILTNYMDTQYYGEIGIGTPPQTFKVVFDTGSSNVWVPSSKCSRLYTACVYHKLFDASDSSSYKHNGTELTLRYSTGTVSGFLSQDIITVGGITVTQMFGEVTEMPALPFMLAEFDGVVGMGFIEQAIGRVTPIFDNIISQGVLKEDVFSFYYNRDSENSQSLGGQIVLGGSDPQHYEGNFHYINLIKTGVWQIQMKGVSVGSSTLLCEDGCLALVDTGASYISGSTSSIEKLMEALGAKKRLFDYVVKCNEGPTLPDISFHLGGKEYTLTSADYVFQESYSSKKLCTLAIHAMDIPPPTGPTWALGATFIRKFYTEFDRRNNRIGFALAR
The data set can be described thus: Enzyme selectivity: renin inhibition. The class given is biochemical. The text has this: (§1) As BACE1 is a member of aspartyl protease family, its selective inhibition over other closely related proteases is required to avoid possible severe side effects.

The next data set addresses T3, BACE2 (Homo sapiens, UniProt Q9Y5Z0).
T3 sequence (Q9Y5Z0 63-518): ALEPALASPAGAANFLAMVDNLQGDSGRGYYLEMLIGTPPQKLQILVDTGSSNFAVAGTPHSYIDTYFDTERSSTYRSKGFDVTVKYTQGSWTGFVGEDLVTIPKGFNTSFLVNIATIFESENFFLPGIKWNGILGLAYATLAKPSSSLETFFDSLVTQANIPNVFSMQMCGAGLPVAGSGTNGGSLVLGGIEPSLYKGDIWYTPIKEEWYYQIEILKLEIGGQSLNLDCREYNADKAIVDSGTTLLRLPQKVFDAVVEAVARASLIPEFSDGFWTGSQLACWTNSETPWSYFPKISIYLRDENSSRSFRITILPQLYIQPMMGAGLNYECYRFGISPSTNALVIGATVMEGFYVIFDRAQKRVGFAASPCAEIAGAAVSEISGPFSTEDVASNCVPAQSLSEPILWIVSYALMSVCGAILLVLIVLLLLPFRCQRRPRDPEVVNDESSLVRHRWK
Kind of data set: Enzyme selectivity: BACE2 inhibition. The format is biochemical.
Description: as §1

Where [5] appears, read: BACE1 FRET assay, 10 μM compound.
The mark [6] stands for this setting: HEK293 cells (method text: HEK293T).

T1 sequence (P56817 46-501): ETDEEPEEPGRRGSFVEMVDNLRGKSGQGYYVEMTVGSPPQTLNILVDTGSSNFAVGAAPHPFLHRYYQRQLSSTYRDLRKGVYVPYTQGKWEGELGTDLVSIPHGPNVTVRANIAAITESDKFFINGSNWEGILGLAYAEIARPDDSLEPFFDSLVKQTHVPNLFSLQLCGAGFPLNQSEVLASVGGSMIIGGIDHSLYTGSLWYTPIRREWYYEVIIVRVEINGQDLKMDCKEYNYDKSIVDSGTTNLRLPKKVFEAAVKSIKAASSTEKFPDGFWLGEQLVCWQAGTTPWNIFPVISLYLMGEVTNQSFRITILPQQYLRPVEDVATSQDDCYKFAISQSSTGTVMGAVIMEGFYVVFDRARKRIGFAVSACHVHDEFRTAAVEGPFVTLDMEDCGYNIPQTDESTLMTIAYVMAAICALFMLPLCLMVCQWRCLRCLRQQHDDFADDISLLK

`O=c1cc(-c2ccc(O)c(O)c2)oc2cc(O)cc(O)c12` [Compound 1, luteolin]: at BACE1 [1] (BACE1 FRET assay, 10 μM compound, 10 µM), the “Inhibition Rate at 10 μM (%)” value amounted to 64.8 ± 6.0%. In addition, at BACE1 [1] (setting [5]), the inhibition (usually how much of the control response was suppressed) at 10 µM came to 68.6 ± 8.9%. The Aβ levels entry in data set [2] is “dose-dependently reduced Aβ levels”. Besides, in “MTT cytotoxicity assay” (setting [6]), it took 39.8 µM to reach half-maximal inhibition (IC50 at 24 h).

For the molecule `O=C(/C=C/c1ccc(O)cc1)OCCOc1cc(O)c2c(=O)cc(-c3ccc(O)c(O)c3)oc2c1` [Compound 3], the “mode of BACE1 inhibition” value at BACE1 [3] is “non-competitive inhibitor”. The IC50 (commonly the midpoint of a concentration-inhibition curve) at BACE1 [1] (BACE1 FRET assay) is 2.19 µM and 1.87 µM. Also, the inhibition at 10 µM at BACE1 [1] (setting [5]) stood at 64.8 ± 6%. Also, in the data set “MTT cytotoxicity assay” (setting [6]), the IC50 at 24 h amounted to 62.4 µM.

`O=C(/C=C/c1ccc(O)cc1)OCCOc1cccc2c(=O)cc(-c3ccc(O)c(O)c3)oc12` [Compound 4l] yielded an IC50 at BACE1 [1] (BACE1 FRET assay) of 2.47 ± 0.17 µM. Moreover, the inhibition at 10 µM on BACE1 [1] (setting [5]) turned out to be 58.4 ± 10.2%. Further, at BACE1 [4], the “mode of BACE1 inhibition” value was “mix-competitive mode”; the Ki (usually the dissociation constant of the complex between target and ligand, obtained from inhibition or displacement) is 0.8 µM.

Turning to `O=C(/C=C/c1cccc(O)c1)OCCOc1cc(O)c2c(=O)cc(-c3ccc(O)c(O)c3)oc2c1` [Compound 7c], the IC50 against BACE1 [1] (BACE1 FRET assay) was 1.44 ± 0.18 µM; on Renin, over 100 µM; on BACE2, over 100 µM. Besides, the inhibition at 10 µM on BACE1 [1] (setting [5]) was found to be 66.7 ± 8.3%. Further, on BACE1 [1], the “selectivity on BACE1 over BACE2 and renin” value is reported as 2–3 orders of magnitude. The Aβ-42 level result in data set [2] (25 µM) is “obvious inhibition”. The IC50 at 24 h in “MTT cytotoxicity assay” (HEK293 cells (method text: HEK293T cells)) is 90 µM. Also, at BACE1 [4], the “mode of BACE1 inhibition” value was “non-competitive inhibitor”. Further, the Ki at BACE1 [4] was 1.2 µM.

For `COc1ccc(/C=C/C(=O)OCCOc2cc(O)c3c(=O)cc(-c4ccc(O)c(O)c4)oc3c2)cc1` [Compound 7i, (E)-2-((2-(3,4-dihydroxyphenyl)-5-hydroxy-4-oxo-4H-chromen-7-yl)oxy)ethyl 3-(4-methoxyphenyl)acrylate], the inhibition at 10 µM on BACE1 [1] (setting [5]) was found to be 28.9 ± 4.4%. For the same molecule, in data set [2], the Aβ-42 levels result was “increased Aβ-42 levels” and the Aβ levels entry is “did not reduce Aβ levels”. In the data set “MTT cytotoxicity assay” (setting [6]), this molecule displayed an IC50 at 24 h of 3.94 µM.

In turn, `O=C(/C=C/c1cccnc1)OCCOc1cc(O)c2c(=O)cc(-c3ccc(O)c(O)c3)oc2c1` [Compound 7k, (E)-2-((2-(3,4-dihydroxyphenyl)-5-hydroxy-4-oxo-4H-chromen-7-yl)oxy)ethyl 3-(pyridin-3-yl)acrylate] yielded an IC50 at BACE1 [1] (BACE1 FRET assay) of 0.15 µM. Also, the inhibition at 10 µM at BACE1 [1] (setting [5]) came to 54.4 ± 3.5%. Further, the “enhancement of BACE1 inhibitory activity compared with the flavone segment 1 or conjugate 3” value on BACE1 [1] (from IC50) was about 10 fold. Besides, the “selectivity on BACE1 over BACE2 and renin” value at BACE1 [1] is 2–3 orders of magnitude. Besides, on Renin, the IC50 was over 100 µM. Besides, in data set [2], the Aβ-42 levels result is reported as “increased Aβ-42 levels” and the Aβ levels entry is listed as “did not reduce Aβ levels”. In the data set “MTT cytotoxicity assay” (setting [6]), this molecule showed an IC50 at 24 h of over 100 µM. This molecule also returned an IC50 at BACE2 of over 100 µM. For the same molecule, at BACE1 [4], the “mode of BACE1 inhibition” value is “mix-competitive mode” and the Ki stood at 0.32 µM.

For `O=C(/C=C/c1ccc(O)cc1)NCCOc1cc(O)c2c(=O)cc(-c3ccc(O)c(O)c3)oc2c1` [Compound 8], the IC50 at BACE1 [1] (BACE1 FRET assay) is 4.15 ± 1.97 µM; on Renin it was 25.4 µM; against BACE2 it was over 100 µM. For the same molecule, the inhibition at 10 µM at BACE1 [1] (setting [5]) was 59.5 ± 4.4%. This molecule had an IC50 at 24 h in the data set “MTT cytotoxicity assay” (setting [6]) of over 100 µM.
